Experimental data reported in patent EP0333351A2, “Platinum coordination compounds” (JOHNSON MATTHEY PUBLIC LIMITED COMPANY, priority 1988, dated 1989).

Test system: ADJ/PC6 tumour
Assay: Antitumour activity against the ADJ/PC6 tumour in mice, intraperitoneal route (LD50, ED90, T.I.)
Type: in vivo
Settings: for ED90: Table 1, ADJ/PC6 tumour in mice; for LD50: Table 1, mice
Protocol: The invention will now be described by way of example only. A selection of compounds according to the invention were prepared by the above-described method, and were characterised by elemental analysis and infra red spectroscopy. The compounds were compared against known compounds and against each other for activity against the ADJ/PC6 tumour in mice, when given by the intraperitoneal route and the results are tabulated below.

Compound | ED90 [mg/kg] | LD50 [mg/kg]
N.N.[Cl][Pt]([Cl])([Cl])[Cl] [Comparison A] | 3.4 | 18
NC1CCCCC1.NC1CCCCC1.[Cl][Pt]([Cl])([Cl])[Cl] [Comparison B] | 10 | 190
